# Where “and” joins values, the source holds several entries; their conditions need not be identical. Identical values can stand only once. Residues, ends and D or L forms follow the SMILES beside them. No end group written: not given here.
# Target: T1, angiotensin I-converting enzyme (ACE) (Oryctolagus cuniculus, UniProt P12822)
# T1 construct: purchased Sigma Chemical Co. (St. Louis, MO, USA)
# T1 sequence (P12822 34-1310): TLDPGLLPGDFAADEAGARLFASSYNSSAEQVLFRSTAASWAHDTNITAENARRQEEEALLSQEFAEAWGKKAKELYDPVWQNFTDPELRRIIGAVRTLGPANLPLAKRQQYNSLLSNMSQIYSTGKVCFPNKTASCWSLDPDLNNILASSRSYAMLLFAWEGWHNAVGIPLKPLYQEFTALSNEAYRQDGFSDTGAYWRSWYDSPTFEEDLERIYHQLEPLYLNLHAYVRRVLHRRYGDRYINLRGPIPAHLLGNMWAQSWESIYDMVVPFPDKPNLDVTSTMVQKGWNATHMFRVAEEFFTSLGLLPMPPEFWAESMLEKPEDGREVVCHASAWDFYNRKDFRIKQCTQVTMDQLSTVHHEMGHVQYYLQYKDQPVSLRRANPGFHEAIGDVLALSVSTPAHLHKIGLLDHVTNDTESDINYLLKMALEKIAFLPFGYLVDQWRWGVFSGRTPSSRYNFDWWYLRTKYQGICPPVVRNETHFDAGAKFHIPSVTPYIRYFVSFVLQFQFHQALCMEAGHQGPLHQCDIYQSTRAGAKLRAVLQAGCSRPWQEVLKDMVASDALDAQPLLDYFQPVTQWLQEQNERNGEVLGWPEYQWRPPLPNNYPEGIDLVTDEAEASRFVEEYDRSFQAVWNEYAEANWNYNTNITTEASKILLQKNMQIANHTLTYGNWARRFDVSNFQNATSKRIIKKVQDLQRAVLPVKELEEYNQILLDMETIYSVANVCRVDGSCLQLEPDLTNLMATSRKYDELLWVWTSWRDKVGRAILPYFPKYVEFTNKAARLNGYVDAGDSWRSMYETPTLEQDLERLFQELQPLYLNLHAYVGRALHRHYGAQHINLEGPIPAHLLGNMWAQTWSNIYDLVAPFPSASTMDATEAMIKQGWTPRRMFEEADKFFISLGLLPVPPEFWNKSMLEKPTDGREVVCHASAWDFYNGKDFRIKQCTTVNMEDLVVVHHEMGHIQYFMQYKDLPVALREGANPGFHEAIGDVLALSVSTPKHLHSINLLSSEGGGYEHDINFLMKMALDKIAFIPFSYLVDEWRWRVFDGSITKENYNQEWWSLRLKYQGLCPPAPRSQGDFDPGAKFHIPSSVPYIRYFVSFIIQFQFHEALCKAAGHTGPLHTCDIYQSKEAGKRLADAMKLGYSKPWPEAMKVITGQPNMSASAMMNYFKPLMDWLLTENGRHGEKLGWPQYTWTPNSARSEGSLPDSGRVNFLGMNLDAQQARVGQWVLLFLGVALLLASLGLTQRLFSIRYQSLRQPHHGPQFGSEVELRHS
# Experiment: ACE inhibitory activity assay (HHL substrate, HPLC detection of hippuric acid)
# Assay type: biochemical
# Conditions: chemically synthesized peptides
# Procedure: ACE inhibitory activity was measured as previously described by Cushman and Cheung with minor modifications. A 10 μL sample solution (50 mM borate, pH 8.3) was added to 30 μL 2.5 mM HHL solution and incubated for 5 min at 37 °C. Subsequently, 20 μL of 0.1 U/mL ACE solution (50 mM borate, 0.3 M NaCl, pH 8.3) was added and the mixture was incubated at 37 °C for 60 min. The reaction was terminated by adding 70 μL of 1 M HCl. A blank sample of buffer alone was used as a negative control. Samples were filtered through a 0.45 μm nylon syringe filter and then separated on a C18 column (4.6 mm × 150 mm, 5 μm). HA and HHL were detected by absorbance at 228 nm. The column was eluted at a flow rate of 0.8 mL/min using a mobile phase composed of (A) 0.05% TFA in water and (B) 0.05% TFA in acetonitrile. The elution was carried out using a gradient of 10%–60% B in the first 10 min followed by 60%–10% B in the next 2 min. HA was quantified by integration of peak areas (A). Percent ACE inhibition was calculated according to the following equation: [drawing 1] (1)
# The ACE inhibitory peptides identified by nano-LC MS/MS were synthesized using the solid phase method and purified by HPLC by GenScript Corporation (Nanjing, China). The ACE inhibitory activity of these chemically synthesized peptides was determined as described in Section 3.3.
row,Molecule,IC50
1,CC(C)C[C@H](NC(=O)[C@H](C)NC(=O)[C@@H](N)CC(C)C)C(=O)N[C@@H](CCCNC(=N)N)C(=O)O [LALR] (H-LALR-OH),1270 µM
2,VVCVPW [VVCVPW],4.07 µM and 4.1 µM
3,CC(C)C[C@H](N)C(=O)N[C@H](C(=O)N[C@@H](CCCCN)C(=O)N[C@@H](Cc1ccccc1)C(=O)O)C(C)C [LVKF] (H-LVKF-OH),24.6 µM
4,CC(C)[C@H](N)C(=O)N[C@@H](CCCCN)C(=O)N[C@@H](Cc1ccccc1)C(=O)O [VKF] (H-Val-Lys-Phe-OH),10.4 µM
5,CC(C)C[C@H](N)C(=O)N[C@@H](CCCNC(=N)N)C(=O)O [LR],158 µM
6,PLFPK [PLFPK],41.3 µM
7,CC(C)C[C@H](NC(=O)[C@H](CCCCN)NC(=O)[C@@H](N)CC(C)C)C(=O)N1CCC[C@H]1C(=O)O [LKLP] (H-LKLP-OH),367 µM
8,CC(C)C[C@H](NC(=O)[C@H](CC(C)C)NC(=O)[C@@H](N)CC(C)C)C(=O)N[C@@H](CCCNC(=N)N)C(=O)O [LLLR] (H-LLLR-OH),1000 µM
9,MPFLFK [MPFLFK],92.4 µM
10,HFEAMR [HFEAMR],192 µM

# Further lines, results first:
row,IC50,Molecule
1,686 µM,LLMPK [LLMPK]
2,59.8 µM,LASPTM [LASPTM]
3,31.8 µM,CC(C)C[C@H](N)C(=O)N[C@@H](Cc1ccccc1)C(=O)N[C@@H](CCCNC(=N)N)C(=O)O [LFR] (H-Leu-Phe-Arg-OH)
4,77.9 µM,N=C(N)NCCC[C@H](NC(=O)[C@H](CCCCN)NC(=O)[C@@H](N)Cc1ccccc1)C(=O)O [FKR] (H-Phe-Lys-Arg-OH)
5,100 µM,VFKAF [VFKAF]
6,2690 µM,LGALPF [LGALPF]
7,482 µM,NC(N)=NCCC[C@H](NC(=O)[C@@H](N)CCCN=C(N)N)C(=O)O [RR] (H-Arg-Arg-OH)
8,1090 µM,CC(C)C[C@H](N)C(=O)N[C@@H](CCC(=O)O)C(=O)NCC(=O)N[C@@H](CCCNC(=N)N)C(=O)O [LEGR] (H-LEGR-OH)
9,222 µM,LLHSPP [LLHSPP]
10,70.2 µM,LFVAAP [LFVAAP]
11,233 µM,LGECGGR [LGECGGR]
12,17.5 µM,LYHVL [LYHVL]
13,308 µM,CC(C)C[C@H](NC(=O)[C@@H](N)CC(C)C)C(=O)N[C@@H](CCCNC(=N)N)C(=O)N[C@@H](Cc1c[nH]cn1)C(=O)O [LLRH] (H-LLRH-OH)
